Data from patent publication US20100137146A1, “Method of Screening Antibacterial Drug Compounds” (Temasek Lifesciences Laboratory, priority 2006, published 2010).

Tests used:
MreB = biological target: T1, MreB (Escherichia coli, UniProt P0A9X4); assay type: cell-based, E. coli
T1 construct: the protein is expressed as a fusion of the full-length bacterial protein with a reporter; expressed in transfected cells; host or cells: Schizosaccharomyces pombe (pREP42-gfp-mreB, nmt42 promoter)
Procedure: GFP-MreB and FtsZ-GFP were expressed in S. pombe by growing the transformed cultures in the absence of thiamine for 16-20 hours. In the case of fission-yeast temperature-sensitive mutants carrying the GFP-MreB plasmid, cultures were grown in the absence of thiamine for 25-30 hours at 24° C. to allow sufficient expression of the protein. However, prior to the formation of MreB-polymers, the cultures were shifted to restrictive temperatures for a period of 4 hours. The cells were subsequently fixed and stained for actin or tubulin.
The cells were-either fixed with formaldehyde 0.7%) or observed live under a fluorescence microscope. Inhibition of MreB polymerization was achieved by the addition of A22 at a final concentration of 50 μg/ml after 14-16 hours of growth in the absence of thiamine. Cultures were allowed to grow further for a period of 6-8 hours before washing of A22 for time-lapse microscopy. The cells were mounted onto agarose slides, and images were acquired at fixed time intervals. Immunofluorescence was carried out as described in Balasubramanian et al., Meth. Enzymol. 283:494-495, 1997.
Next, whether MreB polymerization in fission yeast was mechanistically related to its polymerization in bacteria was assessed. Studies in bacteria have shown that the small molecule A22 affects the polymerization and/or maintenance of MreB polymers. To test whether A22 prevents polymerization of MreB in fission yeast, cells were treated with A22 prior to the induction of MreB expression. Cells expressing GFP-MreB were treated with the MreB-inhibitor A22 (0 minute time point) at a concentration of 50 μg/ml. The drug then was washed out, and cells were imaged by time-lapse microscopy.
To this end, cells containing preformed MreB bundles were treated with A22.

GFP-MreB D165E = GFP-MreB D165E (Escherichia coli, UniProt P0A9X4, D165E); conditions: GFP-MreB D165E in wild type fission yeast
GFP-MreB D165E, sequence (P0A9X4 whole entry D165E): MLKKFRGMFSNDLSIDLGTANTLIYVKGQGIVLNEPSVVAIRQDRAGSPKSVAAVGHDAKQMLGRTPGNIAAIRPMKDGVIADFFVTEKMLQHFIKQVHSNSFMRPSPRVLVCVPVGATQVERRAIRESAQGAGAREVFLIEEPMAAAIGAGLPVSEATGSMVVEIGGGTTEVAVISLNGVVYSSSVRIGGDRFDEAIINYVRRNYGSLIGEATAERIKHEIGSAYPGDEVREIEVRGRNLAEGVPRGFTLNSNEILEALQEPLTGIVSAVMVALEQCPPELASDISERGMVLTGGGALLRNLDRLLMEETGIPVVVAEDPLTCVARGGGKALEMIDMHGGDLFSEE
Description: (§1) The MreB ATPase mutants were generated by overlap PCR with the following mutagenic primers: MOH2516 and MOH2517 for E143A and MOH2512 and MOH2513 for D165E along with the above-mentioned end primers (MOH2413 and MOH2414). The GFP-MreB mutants were all cloned into pREP42. All plasmids and mutations were verified by sequencing.
(§2) In bacteria, mutations in the vicinity of the ATP binding pocket of MreB confer A22 resistance. […] Plasmids expressing GFP-MreB E143A (see Garner et al., Science 306:1021-1025, 2004) or D165E (see Kruse et al., EMBO J. 22:5283-5292, 2003) were introduced into wild type fission yeast cells. Cultures were grown in the absence of thiamine to induce the expression of GFP fusion proteins. […] See FIGS. 15A (E143A) and 15B (D165E).

GFP-MreB E143A = GFP-MreB E143A (Escherichia coli, UniProt P0A9X4, E143A); conditions: GFP-MreB E143A in wild type fission yeast
GFP-MreB E143A, sequence (P0A9X4 whole entry E143A): as the sequence (P0A9X4 whole entry D165E) above, with E143A, E165D counted along it
Description: as §1, §2

F-actin = biological target: T2, F-actin (Schizosaccharomyces pombe, UniProt P10989); assay: F-actin staining (rhodamine-conjugated phalloidin) in S. pombe cells expressing GFP-MreB; assay type: cell-based; conditions: LatA 20 μg/ml for 10 minutes
T2 construct: endogenous in cells; host or cells: Schizosaccharomyces pombe cells expressing GFP-MreB
Procedure: S. pombe cells expressing GFP-MreB were fixed with methanol and incubated with tubulin (1:100) antibodies. Mouse secondary antibodies conjugated to Alexa-594™ were used at 1:400 for visualizing tubulin. For actin staining, cultures were fixed with formaldehyde (3.7%) and permeablized by using 1% Triton-X 100 in PBS. Rhodamine-conjugated phalloidin was used to visualize S. pombe actin. Latrunculin A (LatA) was added at a final concentration of 20 μg/ml for 10 minutes, and methyl 1-(butylcarbanoyl)-2-benzimidazolecarbamate (MBC) was added at a 25 μg/ml for 20 minutes. For methods, see Karagiannis et al., Mol. Biol. Cell 16:358-371, 2005 and Sawin et al., J. Cell Sci. 117:689-700, 2004, the disclosures of which are hereby incorporated by reference. For time-lapse imaging, LatA and MBC were included simultaneously in the agarose pads. […] Pictures were obtained with a CCD camera (CoolSnapHQ™, Photometrics™). The images were acquired and processed with Meta-morph™.
Studies therefore were performed to determine whether MreB assembly and maintenance was dependent on F-actin and microtubules. Cells were grown in the absence of thiamine to allow expression GFP-MreB. Cultures were then treated with LatA (20 μg/ml) for 10 minutes or methyl 1-butylcarbamoyl-2-benzimidazolecarbamate MBC (25 μg/ml) for 20 minutes to disrupt F-actin and microtubule, respectively. […]

T1 sequence (P0A9X4 whole entry, the tested form may be a part): as the sequence (P0A9X4 whole entry D165E) above, with E165D counted along it

Compound	MreB polymerization in fission yeast (MreB; A22 50 μg/ml, S. pombe cells expressing GFP-MreB, 0 minute time point before washout)	Reversibility of the effect on MreB polymerization (MreB; after removal of A22 (50 μg/ml), MreB filaments re-established at 20 minutes)	Severing and/or disassembly of preformed MreB bundles (MreB; cells with prominent GFP-MreB bundles cultured 1 hour with A22)	Structures assembled by MreB ATPase mutant, sensitivity to A22 (GFP-MreB D165E)	Structures assembled by MreB ATPase mutant, sensitivity to A22 (GFP-MreB E143A)	Maintenance of MreB bundles (MreB; LatA 20 μg/ml for 10 minutes)	MreB nucleation and assembly after A22 washout (MreB; simultaneous presence of LatA (20 μg/ml) and MBC (25 μg/ml) in agarose pads)	Effect on average growth rate of MreB bundles (MreB; simultaneous presence of LatA and MBC, rate without them 0.46±0.03 μm/min (n=44))	Disruption of F-actin (F-actin)
N=C(N)SCc1ccc(Cl)c(Cl)c1 [A22]	did not exhibit MreB polymers	reversible	pre-existing bundles were unaffected	assembled similar structures both in the presence and absence of A22	assembled similar structures both in the presence and absence of A22				
C/C1=C/C(=O)O[C@@H]2C[C@@H](CC[C@H](C)/C=C\C=C\CC1)O[C@@](O)([C@@H]1CSC(=O)N1)C2 [LatA, Latrunculin A]						remained unperturbed	MreB nucleated and assembled into polymers	did not vary significantly	completely disassembled
